ChEMBL document CHEMBL3091387, “DPMA, a deoxypodophyllotoxin derivative, induces apoptosis and anti-angiogenesis in non-small cell lung cancer A549 cells” (Bioorg Med Chem Lett, 2013)
Activity calls are given as the source filed them. The rule behind the calls is not given here.

Experiments:
[1] = system: A549; experiment: Induction of apoptosis in human A549 cells assessed as nuclear condensation at 0.5 to 1 uM after 48 hrs by Hoechst 33258 staining-based phase contrast microscopic analysis; format: functional, cell-based
[2] = system: A549; experiment: Induction of apoptosis in human A549 cells assessed as dead cells at 0.5 uM after 24 hrs by annexin V-FITC/propidium iodide staining-based flow cytometric analysis (reference value: 0.69%); format: functional
[3] = system: A549; experiment: Induction of apoptosis in human A549 cells assessed as increase in cleaved caspase-3 protein expression at 1 uM after 24 hrs by immunofluorescence assay; format: functional, cell-based
[4] = system: A549; experiment: Induction of apoptosis in human A549 cells assessed as increase in apoptotic cells after 24 hrs by annexin V-FITC/propidium iodide staining-based flow cytometric analysis; format: functional, cell-based
[5] = system: HUVEC; experiment: Antiangiogenic activity in HUVEC assessed as inhibition of VEGF-induced tube formation at 0.5 to 1 uM after 12 hrs by phase contrast inverted microscopic analysis; format: functional, cell-based; details: Homo sapiens
[6] = system: A549; experiment: Induction of apoptosis in human A549 cells assessed as inhibition of Bcl-2 protein expression at 1 uM after 24 hrs by immunofluorescence assay; format: functional, cell-based
[7] = system: A549; experiment: Induction of apoptosis in human A549 cells at 0.5 to 5 uM by annexin V-FITC/propidium iodide staining-based flow cytometric analysis; format: functional, cell-based; details: TDE = time-dependent effect
[8] = system: A549; experiment: Upregulation of cdc-2 protein expression in human A549 cells by Western blot analysis; format: functional, cell-based; details: TDE = time-dependent effect
[9] = system: A549; experiment: Induction of apoptosis in human A549 cells assessed as cell shrinkage at 1 uM after 36 hrs by DAPI staining-based indirect immunofluorescence assay; format: functional
[10] = system: A549; experiment: Upregulation of cyclin B1 protein expression in human A549 cells by Western blot analysis; format: functional, cell-based; details: TDE = time-dependent effect
[11] = system: A549; experiment: Induction of apoptosis in human A549 cells assessed as late apoptotic cells at 5 uM after 24 hrs by annexin V-FITC/propidium iodide staining-based flow cytometric analysis (reference value: 0.65%); format: functional
[12] = system: A549; experiment: Induction of apoptosis in human A549 cells after 48 hrs by Hoechst 33258 staining-based phase contrast microscopic analysis; format: functional, cell-based
[13] = system: A549; experiment: Induction of apoptosis in human A549 cells assessed as late apoptotic cells at 1 uM after 24 hrs by annexin V-FITC/propidium iodide staining-based flow cytometric analysis (reference value: 0.65%); format: functional
[14] = system: A549; experiment: Upregulation of p53 protein expression in human A549 cells by Western blot analysis; format: functional, cell-based; details: TDE = time-dependent effect
[15] = system: A549; experiment: Induction of apoptosis in human A549 cells assessed as nuclear fragmentation at 0.5 to 1 uM after 48 hrs by Hoechst 33258 staining-based phase contrast microscopic analysis; format: functional, cell-based
[16] = system: A549; experiment: Induction of apoptosis in human A549 cells assessed as nuclear fragmentation dispersed throughout cytoplasm at 1 uM after 36 hrs by DAPI staining-based indirect immunofluorescence assay; format: functional, cell-based
[17] = system: A549; experiment: Cytotoxicity against human A549 cells assessed as cell viability after 48 hrs by MTT assay; format: functional, cell-based
[18] = molecular target: Tubulin (Homo sapiens) (UniProt P68371+Q9H4B7+P0DPH7+P68366+Q13509+Q71U36+P04350+Q3ZCM7+P07437+P68363+Q9BQE3+Q6PEY2+Q13885+Q9BVA1+Q9BUF5); experiment: Binding affinity to tubulin in human A549 cells assessed as inhibition of microtubule network formation at 1 uM after 12 to 36 hrs by indirect immunofluorescence assay; format: cell-based
[19] = system: A549; experiment: Induction of apoptosis in human A549 cells assessed as early apoptotic cells at 5 uM after 24 hrs by annexin V-FITC/propidium iodide staining-based flow cytometric analysis (reference value: 0.18%); format: functional
[20] = system: A549; experiment: Induction of apoptosis in human A549 cells assessed as nuclear condensation dispersed throughout cytoplasm at 1 uM after 36 hrs by DAPI staining-based indirect immunofluorescence assay; format: functional, cell-based
[21] = system: A549; experiment: Induction of apoptosis in human A549 cells assessed as dead cells at 5 uM after 24 hrs by annexin V-FITC/propidium iodide staining-based flow cytometric analysis (reference value: 0.69%); format: functional
[22] = system: A549; experiment: Induction of apoptosis in human A549 cells assessed as dead cells at 1 uM after 24 hrs by annexin V-FITC/propidium iodide staining-based flow cytometric analysis (reference value: 0.69%); format: functional
[23] = system: A549; experiment: Cytotoxicity against human A549 cells assessed as cell viability at 0.2 to 1 uM by MTT assay; format: functional, cell-based; details: TDE = time-dependent effect
[24] = system: A549; experiment: Induction of apoptosis in human A549 cells assessed as early apoptotic cells at 0.5 uM after 24 hrs by annexin V-FITC/propidium iodide staining-based flow cytometric analysis (reference value: 0.18%); format: functional
[25] = system: A549; experiment: Induction of apoptosis in human A549 cells assessed as increase in Bax protein expression at 1 uM after 24 hrs by immunofluorescence assay; format: functional, cell-based
[26] = system: A549; experiment: Induction of apoptosis in human A549 cells assessed as cell shrinkage at 0.5 to 1 uM after 48 hrs by Hoechst 33258 staining-based phase contrast microscopic analysis; format: functional
[27] = system: A549; experiment: Downregulation of phosphorylated cdc-2 protein expression in human A549 cells by Western blot analysis; format: functional, cell-based; details: TDE = time-dependent effect
[28] = system: A549; experiment: Induction of ROS generation in human A549 cells after 24 hrs by DCFH-DA dye-based laser confocal microscopic analysis; format: functional, cell-based
[29] = Cytotoxicity activity human MSC assessed as cell viability at 0.01 to 1 uM after 48 hrs by MTT assay
[30] = system: A549; experiment: Induction of apoptosis in human A549 cells at 0.5 to 1 uM by Hoechst 33258 staining-based phase contrast microscopic analysis; format: functional, cell-based; details: TDE = time-dependent effect
[31] = system: A549; experiment: Induction of apoptosis in human A549 cells assessed as early apoptotic cells at 1 uM after 24 hrs by annexin V-FITC/propidium iodide staining-based flow cytometric analysis (reference value: 0.18%); format: functional
[32] = system: A549; experiment: Induction of apoptosis in human A549 cells assessed as late apoptotic cells at 0.5 uM after 24 hrs by annexin V-FITC/propidium iodide staining-based flow cytometric analysis (reference value: 0.65%); format: functional

With `COc1cc([C@@H]2c3cc4c(cc3C[C@H]3COC(=O)[C@@H]32)OCO4)cc(OC)c1OC(=O)N[C@H](CCSC)C(N)=O` the Activity [1] was “Active”, the Activity [2] was 2.76% and the Activity [3] was “Active”. The Activity [4] was “Dose-dependent effect”, the inhibition [5] was “Active” and the inhibition [6] was “Active”. The Activity [7] was “tde”, the Activity [8] was “tde” and the Activity [9] was “Active”. For the same compound, the Activity [10] was “tde”, the Activity [11] was 27.54% and the Activity [12] was “Dose-dependent effect”. For the same compound, the Activity [13] was 13.83%, the Activity [14] was “tde” and the Activity [15] was “Active”. For the same compound, the Activity [16] was “Active”, the Activity [17] was “Dose-dependent effect” and the inhibition [18] was “Active”. For the same compound, the Activity [19] was 18.41%, the Activity [20] was “Active” and the Activity [21] was 23.43%. The Activity [22] was 15.73%, the Activity [23] was “tde” and the Activity [24] was 6.22%. The Activity [25] was “Active”, the Activity [26] was “Active” and the Activity [27] was “tde”. For the same compound, the Activity [28] was “Dose-dependent effect”, the Activity [29] was “Non-toxic” and the Activity [30] was “tde”. The Activity [31] was 9.28% and the Activity [32] was 6.11%.
